We go through four compounds from US4042695A, “Thiaxanthene derivatives, compositions thereof and methods of treating therewith” (priority 1972, dated 1977).

The test system of series [1] is rats. In words: Antagonism of amphetamine-induced stereotyped behaviour in rats. The class given is in vivo. The note with it: oral; for ED50: Rattus norvegicus. How it is done: The modification used by us was as follows:
The animals were then placed in individual cages. […] The absence of stereotypy was interpreted as a drug effect. ED50 values for protection against stereotypy were determined. All compounds were tested at a minimum of three dose levels using 10 rats per dose, and the observer was kept unaware of the identity of the groups until after the experiment.

Series [2] is described as follows: Pharmacological tests (test not specified). To be noted: in vivo; listed as Example 12 alpha-isomer.
Series [3] has as its system adult purebred Beagle dogs. The series is described as follows: Apomorphine antagonism in dogs. The class given is in vivo. To be noted: ordinary doses, prolonged treatment.
For series [4], the system named is NMRI male mice. The series is described as follows: Methylphenidate antagonism in mice. The class given is in vivo. The note with it: mice, i.p.; for ED50: Mus musculus, ip. The method, then: 1. As animals were used NMRI male mice weighing 18-25 grams.
3 × 2 or 5 × 2 mice are used for each dose level. Thirty minutes, 1 hour, 2 hours, 3 hours etc. after i.p. injection of test substance, methylphenidate, 60 mg/kg, is injected s.c. At each time interval separate groups of mice were used. After administration of methylphenidate the mice are placed in the observation cages, 2 in each cage, where they remain for 1 hour. The cages are placed on corrugated paper, the corrugations facing upwards. It is examined whether or not the mice have been biting the corrugated paper. […] The peak effect was determined for the test substances and also for a number of known neuroleptics.

Series [5] can be described thus: Catalepsy-inducing effect in rats. The class given is in vivo, male Wistar rats. To be noted: rat, in vivo, sc. How it is done: (§1) Reference is made to L. Juluo: "On the Interaction between Neuroleptics and Antiparkinson Drugs." Modern Problems of Pharmacopsychiatry, vol. 5, pg, 50-54. The test may be described as follows:
(§2) Five animals are used at each dose level.
(§3) The test compound is injected subcutaneously (s.c.)
(§4) Injection volume is 5 ml of the vehicle/kg b.w.
(§5) Except when otherwise stated saline is used as vehicle.
(§6) The animals are placed in the middle of a vertical wire netting (50 cm/49 cm) 60, 120, 180, 240, 300 and 360 minutes after injection of the test compound.
(§7) The animals are considered cataleptic when they remain immobile during a period of 15 seconds. This cataleptic reaction is designated: + (plus). Untreated animals climb normally up and down the wire netting. The absence of catalepsy is designated: - (minus). The results are expressed as fractions as follows: 0/5, 1/5, 2/5, 3/5, 4/5 and 5/5 in which 0, 1, 2, 3,4 and 5 represent the number of cataleptic animals out of five animals tested.

Series [6] concerns male Wistar rats. In words: Catalepsy-inducing effect in rats. The class given is in vivo. To be noted: catalepsy (rats) / methylphenidate antagonism peak effect (mice). The method, then:
as §1, §2, §3, §4, §5, §6, §7

The conditions of series [7]: pure α-isomers of known neuroleptics; cited from earlier work.
Where [8] appears, read: 24 h after injection, read-out: Methylphenidate antagonism ED50, 24 h.
The mark [9] stands for this setting: peak effect, methylphenidate 60 mg/kg s.c., read-out: Methylphenidate antagonism, peak effect ED50.

SMILES strings stand for the structures. Read-outs that look alike come from different tables or passages of the source.

Consider `OCCC1CCN(CCC=C2c3ccc(F)cc3Sc3ccc(C(F)(F)F)cc32)CC1` [Substance 13, alpha-isomer of 2-trifluoromethyl-6-fluoro-9-(3-(4-(2-hydroxyethyl)-1-piperidyl)propylidene)-thiaxanthene], for which the ED50 amounted to 0.04 mg/kg in series [1] (24 hours after administration, read-out: ED50 for protection against stereotypy, peak effect (24 hours)); 0.2 mg/kg in series [1] (48 h, read-out: ED50 for protection against stereotypy, 48 h); 0.9 mg/kg in series [1] (72 h, read-out: ED50 for protection against stereotypy, 72 h); 2.3 mg/kg in series [1] (96 h, read-out: ED50 for protection against stereotypy, 96 h). The “time of peak effect, amphetamine antagonism” value in series [1] was found to be 24 h. Besides, the “amphetamine antagonistic effect 4 days after administration (in words)” value in series [1] (4 days) was “rather weak”. In addition, the “pharmacological activity of the isomer (in words)” value in series [2] was “pharmacologically active”. In addition, the “feed intake and survival” value in series [3] is recorded as “did not take feed to a sufficient degree and, accordingly tended to die by starvation”.

On to `CN1CCN(CC/C=C2/c3ccccc3Sc3ccc(S(=O)(=O)N(C)C)cc32)CC1` [Thiothixene, reference compound], for which the ED50 in series [4] (setting [8]) was more than 40 mg/kg; in series [4] (setting [9]) it was 0.4 mg/kg; in series [5], 0.06 mg/kg. In addition, the “Ratio Cat./Meth (catalepsy/methylphenidate antagonism)” value in series [6] is 0.14. For the same compound, in series [7], the “activity of the α-isomer relative to the β-isomer (in words)” value is “most active isomers”.

Regarding `OCCN1CCN(CC/C=C2/c3ccccc3Sc3ccc(Cl)cc32)CC1` [α-Clopenthixol, reference compound], the ED50 in series [4] (setting [8]) is more than 40 mg/kg; in series [4] (setting [9]), 0.7 mg/kg; in series [5], 0.45 mg/kg. The “duration of peak effect” value in series [4] came out at 5 h. The “Ratio Cat./Meth (catalepsy/methylphenidate antagonism)” value in series [6] worked out at 0.7. Besides, the “activity of the α-isomer relative to the β-isomer (in words)” value in series [7] is “most active isomers”.

Turning to `OCCN1CCN(CC/C=C2/c3ccccc3Sc3ccc(C(F)(F)F)cc32)CC1` [α-Flupenthixol, reference compound], the ED50 in series [4] (setting [8]) came out at 17 mg/kg; in series [4] (setting [9]) it was 0.07 mg/kg; in series [5], 0.12 mg/kg. In series [4], the “duration of peak effect” value was 6 h. In series [6], the “Ratio Cat./Meth (catalepsy/methylphenidate antagonism)” value is 1.74. In addition, the “activity of the α-isomer relative to the β-isomer (in words)” value in series [7] is “most active isomers”.
